Experimental data as given in ChEMBL document CHEMBL3046875, “Potential cytotoxic and apoptosis inducing agents: synthesis and evaluation of methoxy-substituted chalcones against human lung and cervical cancers” (Med Chem Res, 2013).

Assays:
HeLa [1] = assay: Cell cycle arrest in Homo sapiens (human) HeLa cells assessed as accumulation at S phase at 2 uM after 48 hr by propidium iodide staining-based flow cytometric analysis (reference value: 14.14%); format: functional
HeLa [2] = assay: Cell cycle arrest in Homo sapiens (human) HeLa cells assessed as accumulation at G0/G1 phase at 2 uM after 48 hr by propidium iodide staining-based flow cytometric analysis (reference value: 63.3%); format: functional
HeLa [3] = assay: Cell cycle arrest in Homo sapiens (human) HeLa cells assessed as accumulation at G2/M phase at 2 uM after 48 hr by propidium iodide staining-based flow cytometric analysis (reference value: 22.68%); format: functional
A549 [4] = assay: Cell cycle arrest in Homo sapiens (human) A549 cells assessed as accumulation at G2/M phase at 2 uM after 48 hr by propidium iodide staining-based flow cytometric analysis (reference value: 11.03%); format: functional
A549 [5] = assay: Cell cycle arrest in Homo sapiens (human) A549 cells assessed as accumulation at sub G0 phase at 2 uM after 48 hr by propidium iodide staining-based flow cytometric analysis (reference value: 1.37%); format: functional
HeLa [6] = assay: Cell cycle arrest in Homo sapiens (human) HeLa cells assessed as accumulation at sub G0 phase at 2 uM after 48 hr by propidium iodide staining-based flow cytometric analysis (reference value: 0.88%); format: functional
HCT-15 = assay: Cytotoxicity against Homo sapiens (human) HCT15 cells assessed as cell viability after 72 hr by MTT assay; format: functional, cell-based; conditions: HCT-15, 72 h
HeLa [7] = assay: Cell cycle arrest in Homo sapiens (human) HeLa cells assessed as accumulation at S phase at IC50 after 48 hr by propidium iodide staining-based flow cytometric analysis (reference value: 14.14%); format: functional
A549 [8] = assay: Cell cycle arrest in Homo sapiens (human) A549 cells assessed as accumulation at S phase at IC50 after 48 hr by propidium iodide staining-based flow cytometric analysis (reference value: 12.83%); format: functional
A549 [9] = assay: Cell cycle arrest in Homo sapiens (human) A549 cells assessed as accumulation at G0/G1 phase at IC50 after 48 hr by propidium iodide staining-based flow cytometric analysis (reference value: 74.9%); format: functional
A549 [10] = assay: Cell cycle arrest in Homo sapiens (human) A549 cells assessed as accumulation at G2/M phase at IC50 after 48 hr by propidium iodide staining-based flow cytometric analysis (reference value: 11.03%); format: functional
A549 [11] = assay: Cytotoxicity against Homo sapiens (human) A549 cells assessed as cell viability after 72 hr by MTT assay; format: functional, cell-based; conditions: A549, 72 h
HeLa [12] = assay: Cell cycle arrest in Homo sapiens (human) HeLa cells assessed as accumulation at G0/G1 phase at IC50 after 48 hr by propidium iodide staining-based flow cytometric analysis (reference value: 63.3%); format: functional
A549 [13] = assay: Cell cycle arrest in Homo sapiens (human) A549 cells assessed as accumulation at sub G0 phase at IC50 after 48 hr by propidium iodide staining-based flow cytometric analysis (reference value: 1.37%); format: functional
HeLa [14] = assay: Cell cycle arrest in Homo sapiens (human) HeLa cells assessed as accumulation at sub G0 phase at IC50 after 48 hr by propidium iodide staining-based flow cytometric analysis (reference value: 0.88%); format: functional
HeLa [15] = assay: Cell cycle arrest in Homo sapiens (human) HeLa cells assessed as accumulation at G2/M phase at IC50 after 48 hr by propidium iodide staining-based flow cytometric analysis (reference value: 22.68%); format: functional
HeLa [16] = assay: Cytotoxicity against Homo sapiens (human) HeLa cells assessed as cell viability after 72 hr by MTT assay; format: functional, cell-based

Row | SMILES | IC50 (HCT-15) [nM] | IC50 (A549 [11]) [nM] | IC50 (HeLa [16]) [nM] | also measured
1 | COc1cccc2c1C(=O)c1c(O)c3c(c(O)c1C2=O)C[C@@](O)(C(=O)CO)C[C@@H]3O[C@H]1C[C@H](N)[C@H](O)[C@H](C)O1.Cl [DOXORUBICIN HYDROCHLORIDE] |  |  |  | Activity (HeLa [1]): 55.74%; Activity (HeLa [2]): 30.86%; Activity (HeLa [3]): 36.19%; Activity (A549 [4]): 0.98%; Activity (A549 [5]): 1.34%; Activity (HeLa [6]): 61.55%
2 | COc1cc(/C=C/C(=O)c2ccccc2F)cc(OC)c1 | 20.9 | 43.6 | 62.9 | Activity (HeLa [7]): 18.21%; Activity (A549 [8]): 9.85%; Activity (A549 [9]): 2.66%; Activity (A549 [10]): 2.22%; Activity (HeLa [12]): 70.2%; Activity (A549 [13]): 61.59%; Activity (HeLa [14]): 9.11%; Activity (HeLa [15]): 26.68%
3 | COc1cc(/C=C/C(=O)c2ccccc2F)cc(OC)c1OC | 134 | > 100000 | 228 | 
4 | COc1cc(OC)c(OC)cc1/C=C/C(=O)c1ccccc1F | 55.3 | 79 | 293 | 
5 | COc1ccc(C(=O)/C=C/c2cc(OC)c(OC)cc2OC)c(F)c1 | 72.2 | 202 | > 100000 | 
6 | COc1ccc(C(=O)/C=C/c2ccc(OC)cc2OC)c(F)c1 | 72.2 | > 100000 | 260 | 
7 | COc1ccc(/C=C/C(=O)c2ccccc2F)c(OC)c1 | 55.9 | 87.3 | 175 | Activity (HeLa [7]): 12.64%; Activity (A549 [8]): 59.98%; Activity (A549 [9]): 5.64%; Activity (A549 [10]): 6.18%; Activity (HeLa [12]): 22.61%; Activity (A549 [13]): 20.48%; Activity (HeLa [14]): 29.37%; Activity (HeLa [15]): 56.9%
8 | COc1cc(OC)c(/C=C/C(=O)c2ccccc2F)c(OC)c1 | 79 | > 100000 | 50.6 | 
9 | COc1ccc(C(=O)/C=C/c2c(OC)cc(OC)cc2OC)c(F)c1 | > 100000 | > 100000 | > 100000 | 
10 | COc1cc(/C=C/C(=O)c2ccc(OC)cc2F)cc(OC)c1 | 55.3 | 101 | 243 | 
11 | COc1ccc(C(=O)/C=C/c2cc(OC)c(OC)c(OC)c2)c(F)c1 | 50.5 | 108 | 144 | 
12 | COc1ccc(C(=O)/C=C/c2ccc(OC)c(OC)c2OC)c(F)c1 | 31.7 | 108 | 211 | 
13 | COc1ccc(OC)c(/C=C/C(=O)c2ccccc2F)c1 | 61.1 | 114 | 96.1 | Activity (HeLa [7]): 0.94%; Activity (A549 [8]): 89.78%; Activity (A549 [9]): 1.36%; Activity (A549 [10]): 16.84%; Activity (HeLa [12]): 7.9%; Activity (A549 [13]): 20.31%; Activity (HeLa [14]): 27.52%; Activity (HeLa [15]): 35.28%
